# Measurements from patent US7642051B2, “Screening methods for the identification of inhibitors of human immunodeficiency virus (HIV) viral protein R (Vpr) binding to the adenine nucleotide translocator (ANT)” (priority 2000, dated 2010).
# “Also recorded” adds a separate entry of the source. Read-outs that look alike come from different tables or passages of the source. Where no end group is shown, it is not given here.
# B1: ANT-2-derived peptide ANT104-116 (peptide)
# peptide: DKRTQFWRYFAGN
# modifications: not checked
# B2: Vpr52-96, P12520 52-96 (peptide)
# peptide: DTWAGVEAIIRILQQLLFIHFRIGCRHSRIGVTRQRRARNGASRS
# modifications: not checked
# B3: FITC-labeled Vpr52-96, P12520 52-96 (peptide)
# peptide: B2 peptide
# modifications: not fully specified
# Key:
# isolated mitochondria = test: Electron microscopy of isolated mitochondria (matrix swelling); type: biochemical; conditions: for inhibition of Vpr-induced matrix swelling: Vpr52-96 3 μM, 0.8 μM Bcl-2 or 2 μM PA10
# Text: C. Ultrastructural effects of Vpr on isolated mitochondria.
# ANT [1] = conditions: 5 μM biotinylated Vpr52-96, 30 min
# Protocol: (§1) Mitochondria were pre-incubated 10 min. with the indicated inhibitors and the percentage of FITC-Vpr52-96-labelled mitochondria is determined as in A. C. […] Mitochondria were incubated with the indicated inhibitors, and then exposed for 30 min at RT with 5 μM biotinylated Vpr52-96. Mitochondria were lysed either after incubation with biotinylated Vpr52-96 (upper panel) or lysed before (lower panel) with Tris/HCl as described in materials and methods. Biotinylated Vpr52-96 complexed with its mitochondrial ligands was retained on avidin-agarose and subjected to immunoblot detection of ANT.
# ANT [2] = molecular target: T1, ANT (Rattus norvegicus, UniProt Q05962); type: biochemical
# T1 construct: from tissue; host or cells: rat heart
# T1 sequence (Q05962 whole entry, looked up): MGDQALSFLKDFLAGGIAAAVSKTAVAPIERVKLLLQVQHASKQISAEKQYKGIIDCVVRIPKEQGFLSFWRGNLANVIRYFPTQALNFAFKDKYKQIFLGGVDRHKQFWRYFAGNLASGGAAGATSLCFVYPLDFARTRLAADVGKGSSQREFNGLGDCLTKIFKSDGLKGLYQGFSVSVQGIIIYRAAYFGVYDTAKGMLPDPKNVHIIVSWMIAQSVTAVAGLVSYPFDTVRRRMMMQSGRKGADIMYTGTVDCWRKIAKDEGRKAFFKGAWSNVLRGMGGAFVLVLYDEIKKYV
# Protocol: (§2) FIG. 3 presents electrophysiological properties of Vpr52-96 and ANT in planar lipid bilayers.
# (§3) Single channel recordings were performed using the “Tip-Dip” technique. The recordings shown are representative for at least three independent determinations.
# (§4) B. Statistical analysis of conductances obtained in A. Results were expressed as current distributions at different voltages. Conductances (γ; in picosiemens, pS) are calculated by division of current by voltage.
# purified mitochondria [3] = test: Binding of FITC-Vpr52-96 to purified mitochondria; conditions: pre-incubation 10 min
# Protocol: Mitochondria were left unstained (insert in Co.) or exposed to the ΔΨm-insensitive mitochondrial dye MitoTracker® Green (75 nM), alone (MTG) or with 0.5 μM of FITC-Vpr52-96; green fluorescence), in combination with the ΔΨm-sensitive mitochondrial dye MitoTracker® Red (CMXRos; red Fluorescence) followed by cytofluorometric two-color analysis. Numbers indicate the percentage of mitochondria in each quadrant.
# as §1
# purified mitochondria [4] = test: ΔΨm dissipation in purified mitochondria (JC-1 flow cytometry); type: biochemical; conditions: for inhibition of Vpr-induced ΔΨm loss in purified mitochondria: 5 μM CsA, 50 μM BA, 0.8 μM Bcl-2, 2 μM PA10, Vpr52-96 3 μM, 5 min
# Protocol: C. […] Purified mitochondria were treated with 1 μM Vpr52-96 subjected to cytofluorometric determination of the percentage of mitochondria having a low ΔΨm using the ΔΨm-sensitive fluorochrome JC-1. In parallel, cytochrome c was immunodetected in the supernatant of mitochondria.
# Numbers indicate the percentage of JC-1^high and JC-1^low mitochondria among ˜10^4 events.
# E. Quantitation of the frequency of JC-1^low mitochondria (X±SD, n=5) after incubation with different Vpr-derived peptides.
# Vpr52-96 = Vpr52-96 (Human immunodeficiency virus type 1 group M subtype B, UniProt P69726)
# COS cells = test: Vpr52-96-induced ΔΨm dissipation in intact microinjected cells; type: cell-based; conditions: Bcl-2 10 μM, PA10 2 μM microinjected
# Text: A. Vpr52-96-induced ΔΨm dissipation induced in intact cells.
# ANT-proteoliposomes = molecular target: T2, ANT-proteoliposomes (Rattus norvegicus, UniProt Q05962); type: binding
# T2 construct: ANT is purified from rat heart and reconstituted in liposomes; from tissue; host or cells: rat heart
# T2 sequence (Q05962 1-298): T1 sequence (Q05962 whole entry, looked up)
# Protocol: 1. Purification of ANT. ANT is purified from rat heart and reconstituted in liposomes according to the protocol described by Brenner et al., Oncogene, 2000.
# 2. Reconstitution of ANT in liposomes. ANT (0.03 mg/ml) is incorporated in liposomes composed of phosphatidylcholine and cardiolipine (PC:CL; 45:1; W: w; and 300 ng ANT per mg of lipids) in the presence of 0.3% n-octyl-β-D-pyranoside for 2 min. at room temperature. […] Then, the detergent is eliminated by dialyzing, overnight, the liposomes against the buffer 10 mM HEPES, 125 mM sucrose, pH7.4 at 4° C. (e.g.: about 11 of buffer per 1 ml liposomes).
# ANT [5] = molecular target: T3, ANT (Rattus norvegicus, UniProt Q05962); type: binding; conditions: X±SD, n=5; read-out: calculated KD of the interaction of ANT with Vpr52-96
# T3 construct: from tissue; host or cells: rat heart
# Text: A. Plasma surface resonance sensorgrams of the interaction of ANT with Vpr52-96, Vpr52-96[R73A,80A] or an irrelevant control (Co).
# B. Langmuir isotherm determined at different concentrations of ANT on sensorgrams corrected by subtraction of the blank (sensorgrams obtained with Vpr52-96[R73A,80A]).
# ANT [6] = molecular target: T3, ANT; type: biochemical; remark: listed apart in the source
# Protocol: as §2, §3, §4
# purified mitochondria [7] = test: Respirometry of purified mitochondria (respiratory control); type: biochemical; conditions: 10 min after 1 μM peptide; control mitochondria 5.3
# Protocol: A. Oxygen consumption curves after addition of the indicated agents. Trace a: control mitochondria (no pretreatment). Trace b: mitochondria pretreated for 10 min with 1 μM Vpr52-96. Numbers along the traces are nmol of 02 consumed min^−1 mg^−1 protein.
# B. Respiratory control (RC) values calculated by dividing oxygen consumption in the presence of CCCP by that measured with oligomycin (determined as in A), 10 min after addition of 1 μM of Vpr-derived peptides (mean values of 3 determinations).
# ANT [8] = molecular target: T3, ANT; conditions: surface plasmon resonance, Jacotot et al. 2000; cited from earlier work
# Vpr52-96-ANT interaction = molecular target: T4, Vpr52-96-ANT interaction (Rattus norvegicus, UniProt Q05962); type: binding; conditions: BA 250 μM, Atr 50 μM, peptides 5 μM
# T4 construct: from tissue; host or cells: rat heart (ANT)
# T4 sequence (Q05962 2-298 limits assumed): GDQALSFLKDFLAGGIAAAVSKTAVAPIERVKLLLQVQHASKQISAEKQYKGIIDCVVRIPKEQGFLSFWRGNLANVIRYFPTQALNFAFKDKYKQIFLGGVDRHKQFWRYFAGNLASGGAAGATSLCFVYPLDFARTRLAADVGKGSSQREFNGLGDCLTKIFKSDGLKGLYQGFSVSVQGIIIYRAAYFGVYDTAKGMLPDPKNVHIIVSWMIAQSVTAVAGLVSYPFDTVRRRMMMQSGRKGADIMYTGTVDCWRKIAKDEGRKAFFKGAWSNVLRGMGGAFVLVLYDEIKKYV
# [9] = molecular target: biotin-Vpr52-96 (biotinylated C-terminal moiety of HIV-1 Vpr) (HIV-1), P12520; test: surface plasmon resonance, Langmuir isotherm, peptide on biotinylated Vpr52-96
# [10] = molecular target: T5, adenine nucleotide translocator (ANT), native purified, detergent-solubilized or reconstituted in liposomes / planar lipid bilayers (rat), Q05962; test: cell-based or functional assay
# T5 chain: T4 sequence (Q05962 2-298 limits assumed)
# [11] = molecular target: T5, adenine nucleotide translocator (ANT), …; test: flow cytometry of liposomes; FITC-Vpr52-96 on ANT-proteoliposomes
molecule,measurement,setting,value
Bcl-2: recombinant human Bcl-2 protein,inhibition of Vpr-induced matrix swelling,isolated mitochondria,inhibited; also recorded: strongly reduced
same,"effect on affinity purification of ANT with biotinylated Vpr52-96, intact mitochondria",ANT [1],reduced the Vpr52-96-mediated recovery of ANT
same,effect on formation of Vpr52-96 induced channels in ANT-containing lipid bilayers,ANT [2],abolished the formation of Vpr52-96 induced channels
same,effect on binding of Vpr52-96 to purified mitochondria,purified mitochondria [3],failed to impair the binding
same,inhibition of Vpr-induced ΔΨm loss in purified mitochondria,purified mitochondria [4],inhibited; also recorded: strongly reduced
same,binding of Bcl-2 to Vpr52-96,Vpr52-96,did not bind Vpr52-96
same,prevention of Vpr effect on intact cells by microinjection,COS cells,prevented
same,effect on Vpr52-96 binding to membrane-associated ANT (ANT proteoliposomes),ANT-proteoliposomes,reduced Vpr52-96 binding
CC[C@H](C)[C@H](NC(=O)[C@H](C)NC(=O)[C@H](CCC(=O)O)NC(=O)[C@@H](NC(=O)CNC(=O)[C@H](C)NC(=O)[C@H](Cc1c[nH]c2ccccc12)NC(=O)[C@@H](NC(=O)[C@@H](N)CC(=O)O)[C@@H](C)O)C(C)C)C(=O)N[C@H](C(=O)N[C@@H](CCCNC(=N)N)C(=O)N[C@H](C(=O)N[C@@H](CC(C)C)C(=O)N[C@@H](CCC(N)=O)C(=O)N[C@@H](CCC(N)=O)C(=O)N[C@@H](CC(C)C)C(=O)N[C@@H](CC(C)C)C(=O)N[C@@H](Cc1ccccc1)C(=O)N[C@H](C(=O)N[C@@H](Cc1c[nH]cn1)C(=O)N[C@@H](Cc1ccccc1)C(=O)N[C@@H](CCCNC(=N)N)C(=O)N[C@H](C(=O)NCC(=O)N[C@@H](CS)C(=O)N[C@@H](CCCNC(=N)N)C(=O)N[C@@H](Cc1c[nH]cn1)C(=O)N[C@@H](CO)C(=O)N[C@@H](CCCNC(=N)N)C(=O)N[C@H](C(=O)NCC(=O)N[C@H](C(=O)N[C@H](C(=O)N[C@@H](CCCNC(=N)N)C(=O)N[C@@H](CCC(N)=O)C(=O)N[C@@H](CCCNC(=N)N)C(=O)N[C@@H](CCCNC(=N)N)C(=O)N[C@@H](C)C(=O)N[C@@H](CCCNC(=N)N)C(=O)N[C@@H](CC(N)=O)C(=O)NCC(=O)N[C@@H](C)C(=O)N[C@@H](CO)C(=O)N[C@@H](CCCNC(=N)N)C(=O)N[C@@H](CO)C(=O)O)[C@@H](C)O)C(C)C)[C@@H](C)CC)[C@@H](C)CC)[C@@H](C)CC)[C@@H](C)CC)[C@@H](C)CC [Vpr52-96],ultrastructural effect on mitochondria,"isolated mitochondria; 3 μM, 5 or 15 min",matrix swelling before OM rupture became apparent
same,Kd,ANT [5],9.7 ± 6.4 nM
same,conductance of Vpr52-96-ANT channels without any further addition,ANT [6]; as printed in Example 4,190±2
same,channel formation in planar lipid bilayers without ANT,"ANT [6]; low doses (<1 nM), no ANT",incapable of forming channels
same,respiratory control (RC) value,purified mitochondria [7],1.1
same,timing of ΔΨm loss relative to cytochrome c release,purified mitochondria [4]; Vpr52-96 1 μM,well before cytochrome c release can be detected
same,Vpr52-96 binding to ANT liposomes compared to protein-free liposomes,ANT-proteoliposomes,greatly facilitated
same,affinity of Vpr C-terminus for purified ANT,ANT [8],high affinity in the nanomolar range
"C=C1[C@@H]2CC[C@H]3[C@]4(C)C[C@H](O[C@@H]5O[C@H](CO)[C@@H](OS(=O)(=O)O)[C@H](OS(=O)(=O)O)[C@H]5OC(=O)CC(C)C)C[C@@H](C(=O)O)[C@H]4CC[C@]3(C2)[C@H]1O [Atr, atractyloside]",modulation of the Vpr52-96-ANT interaction by ANT ligands and peptides,Vpr52-96-ANT interaction,favors Vpr binding
"CO[C@H](C/C=C\C=C\CC/C=C/C[C@H](C)/C=C/C(=C\C(=O)O)CC(=O)O)/C(C)=C\C=C(/C)C(=O)O [BA, bongkrekic acid, reference compound]",inhibition of Vpr-induced matrix swelling,isolated mitochondria,inhibited
same,effect on binding of Vpr52-96 to purified mitochondria,purified mitochondria [3],partially reduced
same,inhibition of Vpr-induced ΔΨm loss in purified mitochondria,purified mitochondria [4],inhibited
same,effect on Vpr52-96 binding to membrane-associated ANT (ANT proteoliposomes),"ANT-proteoliposomes; BA 50 μM, Bcl-2 800 nM",inhibited
same,modulation of the Vpr52-96-ANT interaction by ANT ligands and peptides,Vpr52-96-ANT interaction,reduces Vpr binding
B1,Kd,[9],35000 nM
B2,conductance of Vpr52-96-ANT channels in the presence of Bax,[10],245
same,conductance of channels in planar lipid bilayers,[10],190 pS
B3,EC50 (read off the curve),[11],900 nM
